{"source": "patent US20100267561A1", "about": "“HERBICIDAL PYRIDAZINONE DERIVATIVES” (priority 2007, published 2010)", "format_in_all_cases": "in vivo", "key": {"[1]": {"tested_on": "barnyardgrass (Echinochloa crus-galli)", "experiment": "Test B flooded paddy test plant response", "conditions": "Echinochloa crus-galli, Flood (flooded paddy test), scale 0 to 100, 0 no effect, 100 complete control, read-out: Plant response rating, Barnyardgrass", "how_it_was_run": "(§1)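 Step one: raise plants to 2 leaves. Step two: flood pots 3 cm over the soil and apply compound into the water, keeping this depth. Step three: after 13–15 greenhouse days, score visually versus controls, 0–100, where 100 means complete control.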"}, "[2]": {"tested_on": "ducksalad (Heteranthera limosa)", "experiment": "Test B flooded paddy test plant response", "conditions": "Heteranthera limosa, Flood (flooded paddy test), scale 0 to 100, 0 no effect, 100 complete control, read-out: Plant response rating, Ducksalad", "how_it_was_run": "as §1"}, "[3]": {"tested_on": "umbrella sedge (Cyperus difformis)", "experiment": "Test B flooded paddy test plant response", "conditions": "Cyperus difformis, Flood (flooded paddy test), scale 0 to 100, 0 no effect, 100 complete control, read-out: Plant response rating, Sedge, Umbrella", "how_it_was_run": "as §1"}, "[4]": {"tested_on": "rice (Oryza sativa)", "experiment": "Test B flooded paddy test plant response", "conditions": "Oryza sativa, Flood (flooded paddy test), scale 0 to 100, 0 no effect, 100 complete control, read-out: Plant response rating, Rice", "how_it_was_run": "as §1"}, "[5]": {"tested_on": "windgrass (Apera spica-venti)", "experiment": "Test B postemergence plant response", "conditions": "for Windgrass plant response rating: postemergence, 0-100 scale; for Plant response rating, Windgrass: Postemergence", "how_it_was_run": "(§2)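 Following treatment of plants 2 to 18 cm high after emergence, pots were held under glass for 13 to 15 days; efficacy was then graded visually, 100 denoting complete control and a dash no test result.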"}, "[6]": {"tested_on": "canarygrass (Phalaris minor)", "experiment": "Test B postemergence plant response", "conditions": "for Plant response rating, Canarygrass: Postemergence", "how_it_was_run": "as §2"}, "[7]": {"tested_on": "chickweed (Stellaria media)", "experiment": "Test B postemergence plant response", "conditions": "for Plant response rating, Chickweed: Postemergence", "how_it_was_run": "as §2"}, "[8]": {"tested_on": "winter barley (Hordeum vulgare)", "experiment": "Test B postemergence plant response", "conditions": "for Plant response rating, Barley: Postemergence, scale 0 to 100, 0 no effect, 100 complete control", "how_it_was_run": "as §2"}, "[9]": {"tested_on": "barnyardgrass (Echinochloa crus-galli)", "experiment": "Test A pre-/postemergence plant response", "conditions": "Echinochloa crus-galli, 240 h, read-out: Plant response rating, Barnyardgrass; for pest or weed control at 31 g/ha: 31 g ai/ha; for pest or weed control at 125 g/ha: 125 g ai/ha", "how_it_was_run": "(§3)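 Scores reflect visual plant injury relative to untreated controls on a 0–100 scale, recorded approximately 10 days after simultaneous preemergence soil spraying and postemergence spraying of one- to two-leaf seedlings grown in loam–sand.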"}, "[10]": {"tested_on": "corn (Zea mays)", "experiment": "Test A pre-/postemergence plant response", "conditions": "Zea mays, 240 h; for Corn plant response rating (crop injury, 0 = no effect, 100 = complete kill) at 31 g/ha: 31 g ai/ha; for Corn plant response rating (crop injury, 0 = no effect, 100 = complete kill) at 125 g/ha: 125 g ai/ha", "how_it_was_run": "as §3"}, "[11]": {"tested_on": "pigweed (Amaranthus retroflexus)", "experiment": "Test A pre-/postemergence plant response", "conditions": "Amaranthus retroflexus, 240 h, read-out: Plant response rating, Pigweed; for pest or weed control at 31 g/ha: 31 g ai/ha; for pest or weed control at 125 g/ha: 125 g ai/ha", "how_it_was_run": "as §3"}, "[12]": {"tested_on": "wheat (Triticum aestivum)", "experiment": "Test A pre-/postemergence plant response", "conditions": "Triticum aestivum, 240 h, read-out: Plant response rating, Wheat; for plant injury at 31 g/ha: 31 g ai/ha; for plant injury at 125 g/ha: 125 g ai/ha", "how_it_was_run": "as §3"}, "[13]": {"tested_on": "large crabgrass (Digitaria sanguinalis)", "experiment": "Test A pre-/postemergence plant response", "conditions": "Digitaria sanguinalis, 240 h, read-out: Plant response rating, Crabgrass, Large; for pest or weed control at 31 g/ha: 31 g ai/ha; for pest or weed control at 125 g/ha: 125 g ai/ha", "how_it_was_run": "as §3"}, "[14]": {"conditions": "62 g ai/ha, scale 0 to 100, 0 no effect, 100 complete control"}, "[15]": {"conditions": "8 g ai/ha, postemergence, 0-100 scale"}, "[16]": {"conditions": "post-emergence, Postemergence, 0 to 100 scale (0 no effect, 100 complete control)"}, "[17]": {"conditions": "post-emergence, Postemergence, 0 to 100 scale, 0 no effect, 100 complete control"}, "[18]": {"conditions": "pre-emergence, Preemergence, 0 to 100 scale, 0 is no effect, 100 is complete control"}, "[19]": {"conditions": "pre-emergence, Preemergence, 0 to 100 scale (0 no effect, 100 complete control)"}}, "note": "Like-named read-outs stand apart in the source and are kept apart here.", "data": [{"smiles": "Cc1nn(C)c(=O)c(-n2nc(-c3ccc(C(F)(F)F)cc3)cc2C)c1O", "note": "[Compound 75, 5-hydroxy-2,6-dimethyl-4-[5-methyl-3-[4-(trifluoromethyl)phenyl]-1H-pyrazol-1-yl]-3(2H)-pyridazinone]", "values": [{"measurement": "pest or weed control at 62 g/ha", "setting": "[1]; 62 g ai/ha", "value": 0, "unit": "%"}, {"measurement": "pest or weed control at 250 g/ha", "setting": "[1]; 250 g ai/ha", "value": 0, "unit": "%"}, {"measurement": "pest or weed control at 62 g/ha", "setting": "[2]; 62 g ai/ha", "value": 0, "unit": "%"}, {"measurement": "pest or weed control at 250 g/ha", "setting": "[2]; 250 g ai/ha", "value": 0, "unit": "%"}, {"measurement": "pest or weed control at 62 g/ha", "setting": "[3]; 62 g ai/ha", "value": 0, "unit": "%"}, {"measurement": "pest or weed control at 250 g/ha", "setting": "[3]; 250 g ai/ha", "value": 0, "unit": "%"}, {"measurement": "plant injury at 62 g/ha", "setting": "[4]; 62 g ai/ha", "value": 0, "unit": "%"}, {"measurement": "plant injury at 250 g/ha", "setting": "[4]; 250 g ai/ha", "value": 0, "unit": "%"}, {"measurement": "Windgrass plant response rating", "setting": "[5]; 8 g ai/ha", "value": 10}, {"measurement": "Windgrass plant response rating", "setting": "[5]; 16 g ai/ha", "value": 50}, {"measurement": "Plant response rating, Windgrass", "setting": "[5]; 31 g ai/ha, scale 0 to 100", "value": 70}, {"measurement": "Plant response rating, Windgrass", "setting": "[5]; [14]", "value": 90}, {"measurement": "Canarygrass plant response rating", "setting": "[6]; [15]", "value": 0}, {"measurement": "Plant response rating, Canarygrass", "setting": "[6]; 16 g ai/ha, scale 0 to 100", "value": 0}, {"measurement": "Plant response rating, Canarygrass", "setting": "[6]; 31 g ai/ha, scale 0 to 100", "value": 0}, {"measurement": "Plant response rating, Canarygrass", "setting": "[6]; [14]", "value": 50}, {"measurement": "Chickweed plant response rating", "setting": "[7]; [15]", "value": 0}, {"measurement": "Plant response rating, Chickweed", "setting": "[7]; 16 g ai/ha, scale 0 to 100", "value": 0}, {"measurement": "Plant response rating, Chickweed", "setting": "[7]; 31 g ai/ha, scale 0 to 100", "value": 0}, {"measurement": "Plant response rating, Chickweed", "setting": "[7]; [14]", "value": 0}, {"measurement": "Barley plant response rating", "setting": "[8]; [15]", "value": 0}, {"measurement": "Plant response rating, Barley", "setting": "[8]; 16 g ai/ha", "value": 0}, {"measurement": "Plant response rating, Barley", "setting": "[8]; 31 g ai/ha", "value": 15}, {"measurement": "Plant response rating, Barley", "setting": "[8]; 62 g ai/ha", "value": 60}, {"measurement": "pest or weed control at 31 g/ha", "setting": "[9]; [16]", "value": 10, "unit": "%"}, {"measurement": "pest or weed control at 125 g/ha", "setting": "[9]; [17]", "value": 90, "unit": "%"}, {"measurement": "pest or weed control at 31 g/ha", "setting": "[9]; [18]", "value": 0, "unit": "%"}, {"measurement": "pest or weed control at 125 g/ha", "setting": "[9]; [19]", "value": 80, "unit": "%"}, {"measurement": "Corn plant response rating (crop injury, 0 = no effect, 100 = complete kill) at 31 g/ha", "setting": "[10]; [16]", "value": 0, "unit": "%"}, {"measurement": "Corn plant response rating (crop injury, 0 = no effect, 100 = complete kill) at 125 g/ha", "setting": "[10]; [17]", "value": 90, "unit": "%"}, {"measurement": "Corn plant response rating (crop injury, 0 = no effect, 100 = complete kill) at 31 g/ha", "setting": "[10]; [18]", "value": 0, "unit": "%"}, {"measurement": "Corn plant response rating (crop injury, 0 = no effect, 100 = complete kill) at 125 g/ha", "setting": "[10]; [19]", "value": 0, "unit": "%"}, {"measurement": "pest or weed control at 31 g/ha", "setting": "[11]; [16]", "value": 0, "unit": "%"}, {"measurement": "pest or weed control at 125 g/ha", "setting": "[11]; [17]", "value": 0, "unit": "%"}, {"measurement": "pest or weed control at 31 g/ha", "setting": "[11]; [18]", "value": 0, "unit": "%"}, {"measurement": "pest or weed control at 125 g/ha", "setting": "[11]; [19]", "value": 0, "unit": "%"}, {"measurement": "plant injury at 31 g/ha", "setting": "[12]; [16]", "value": 10, "unit": "%"}, {"measurement": "plant injury at 125 g/ha", "setting": "[12]; [17]", "value": 70, "unit": "%"}, {"measurement": "plant injury at 31 g/ha", "setting": "[12]; [18]", "value": 0, "unit": "%"}, {"measurement": "plant injury at 125 g/ha", "setting": "[12]; [19]", "value": 20, "unit": "%"}, {"measurement": "pest or weed control at 31 g/ha", "setting": "[13]; [16]", "value": 20, "unit": "%"}, {"measurement": "pest or weed control at 125 g/ha", "setting": "[13]; [17]", "value": 80, "unit": "%"}, {"measurement": "pest or weed control at 31 g/ha", "setting": "[13]; [18]", "value": 0, "unit": "%"}, {"measurement": "pest or weed control at 125 g/ha", "setting": "[13]; [19]", "value": 40, "unit": "%"}]}]}
